Source: ChEMBL document CHEMBL5465560, “Selectivity Literature for EUbOPEN Chemogenomic Library” (2024)
Each block holds one compound with its values, some of them ahead of it.

Tests used:
[1] = molecular target: T1, Phosphatidylinositol 3-kinase C2 domain-containing subunit gamma (Homo sapiens) (UniProt O75747); assay: Selectivity interaction (Adapta Assay) EUB0001632a PIK3C2G; conditions: at 10 µM
T1 sequence (whole entry): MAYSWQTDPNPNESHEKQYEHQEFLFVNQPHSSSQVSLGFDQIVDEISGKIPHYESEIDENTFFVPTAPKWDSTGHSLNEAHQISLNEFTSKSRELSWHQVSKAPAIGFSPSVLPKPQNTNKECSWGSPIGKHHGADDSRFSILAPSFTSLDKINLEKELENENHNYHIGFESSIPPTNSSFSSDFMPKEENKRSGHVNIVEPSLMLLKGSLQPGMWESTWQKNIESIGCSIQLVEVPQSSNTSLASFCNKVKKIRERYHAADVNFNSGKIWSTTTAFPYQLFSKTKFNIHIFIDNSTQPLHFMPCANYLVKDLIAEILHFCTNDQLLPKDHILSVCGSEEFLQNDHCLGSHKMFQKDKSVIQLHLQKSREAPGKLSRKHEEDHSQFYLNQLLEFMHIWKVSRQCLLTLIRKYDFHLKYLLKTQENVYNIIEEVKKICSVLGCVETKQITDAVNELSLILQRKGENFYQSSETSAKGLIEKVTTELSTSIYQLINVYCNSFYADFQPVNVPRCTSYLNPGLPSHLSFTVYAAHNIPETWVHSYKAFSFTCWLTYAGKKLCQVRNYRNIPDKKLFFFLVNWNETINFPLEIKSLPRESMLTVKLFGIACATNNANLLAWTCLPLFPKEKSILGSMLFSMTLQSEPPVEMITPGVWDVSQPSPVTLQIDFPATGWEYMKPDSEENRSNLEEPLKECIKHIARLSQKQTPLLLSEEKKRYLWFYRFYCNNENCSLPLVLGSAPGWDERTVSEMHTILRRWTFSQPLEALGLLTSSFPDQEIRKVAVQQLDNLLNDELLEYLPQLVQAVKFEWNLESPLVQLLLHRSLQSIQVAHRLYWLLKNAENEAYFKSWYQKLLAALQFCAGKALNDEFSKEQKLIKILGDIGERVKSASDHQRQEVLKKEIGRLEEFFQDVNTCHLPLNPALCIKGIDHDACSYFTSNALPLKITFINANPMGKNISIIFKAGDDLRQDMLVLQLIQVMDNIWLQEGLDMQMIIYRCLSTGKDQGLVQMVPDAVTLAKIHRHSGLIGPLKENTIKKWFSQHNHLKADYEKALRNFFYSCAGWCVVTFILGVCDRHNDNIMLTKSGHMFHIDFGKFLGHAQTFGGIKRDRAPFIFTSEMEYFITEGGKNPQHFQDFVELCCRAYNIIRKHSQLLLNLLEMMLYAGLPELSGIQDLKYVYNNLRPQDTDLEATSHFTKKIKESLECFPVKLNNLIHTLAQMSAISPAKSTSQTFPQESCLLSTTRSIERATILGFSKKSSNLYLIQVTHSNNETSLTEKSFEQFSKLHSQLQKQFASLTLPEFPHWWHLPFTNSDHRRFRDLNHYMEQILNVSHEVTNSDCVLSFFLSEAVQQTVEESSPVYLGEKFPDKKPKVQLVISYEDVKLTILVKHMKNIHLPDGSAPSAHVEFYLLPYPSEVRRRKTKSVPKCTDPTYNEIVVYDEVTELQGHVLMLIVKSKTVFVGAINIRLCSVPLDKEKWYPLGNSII

[2] = molecular target: Tyrosine-protein kinase CSK (Homo sapiens) (UniProt P41240); assay: Selectivity interaction (Kinase panel (Invitrogen)) EUB0000639a CSK; conditions: at 200 nM
Tyrosine-protein kinase CSK (Homo sapiens), sequence (P41240 2-450 limits assumed): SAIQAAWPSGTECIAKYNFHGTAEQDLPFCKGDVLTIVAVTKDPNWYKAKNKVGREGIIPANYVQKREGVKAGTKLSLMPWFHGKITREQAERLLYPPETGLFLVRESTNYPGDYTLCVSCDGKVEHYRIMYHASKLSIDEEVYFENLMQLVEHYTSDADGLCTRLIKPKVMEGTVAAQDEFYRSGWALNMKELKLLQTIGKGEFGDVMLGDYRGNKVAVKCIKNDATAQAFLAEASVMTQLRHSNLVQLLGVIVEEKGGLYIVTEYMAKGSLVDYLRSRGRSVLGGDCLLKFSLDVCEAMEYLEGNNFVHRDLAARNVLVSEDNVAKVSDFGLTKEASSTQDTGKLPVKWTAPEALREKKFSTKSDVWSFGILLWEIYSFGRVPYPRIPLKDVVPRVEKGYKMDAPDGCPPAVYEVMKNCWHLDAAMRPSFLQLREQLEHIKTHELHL

[3] = molecular target: T2, Serine/threonine-protein kinase 3 (Homo sapiens) (UniProt Q13188); assay: Selectivity interaction (Kinase panel (DSF assay)) EUB0001558a STK3
T2 sequence (whole entry): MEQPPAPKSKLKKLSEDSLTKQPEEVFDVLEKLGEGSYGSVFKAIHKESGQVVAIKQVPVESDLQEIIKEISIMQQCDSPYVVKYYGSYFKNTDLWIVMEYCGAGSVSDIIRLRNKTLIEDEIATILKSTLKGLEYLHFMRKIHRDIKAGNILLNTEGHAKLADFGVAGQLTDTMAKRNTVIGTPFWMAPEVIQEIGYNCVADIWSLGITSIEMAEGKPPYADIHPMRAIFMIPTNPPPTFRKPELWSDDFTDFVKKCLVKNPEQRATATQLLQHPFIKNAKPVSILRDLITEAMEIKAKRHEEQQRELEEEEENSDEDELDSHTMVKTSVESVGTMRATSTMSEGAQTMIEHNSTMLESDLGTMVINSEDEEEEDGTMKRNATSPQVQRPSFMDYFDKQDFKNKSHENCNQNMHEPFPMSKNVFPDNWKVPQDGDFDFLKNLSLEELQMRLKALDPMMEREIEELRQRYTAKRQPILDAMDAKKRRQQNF

[4] = molecular target: T3, SNF-related serine/threonine-protein kinase (Homo sapiens) (UniProt Q9NRH2); assay: Selectivity interaction (KinomeScan (DiscoverX)) EUB0001079a SNRK; conditions: at 1 µM
T3 sequence (whole entry): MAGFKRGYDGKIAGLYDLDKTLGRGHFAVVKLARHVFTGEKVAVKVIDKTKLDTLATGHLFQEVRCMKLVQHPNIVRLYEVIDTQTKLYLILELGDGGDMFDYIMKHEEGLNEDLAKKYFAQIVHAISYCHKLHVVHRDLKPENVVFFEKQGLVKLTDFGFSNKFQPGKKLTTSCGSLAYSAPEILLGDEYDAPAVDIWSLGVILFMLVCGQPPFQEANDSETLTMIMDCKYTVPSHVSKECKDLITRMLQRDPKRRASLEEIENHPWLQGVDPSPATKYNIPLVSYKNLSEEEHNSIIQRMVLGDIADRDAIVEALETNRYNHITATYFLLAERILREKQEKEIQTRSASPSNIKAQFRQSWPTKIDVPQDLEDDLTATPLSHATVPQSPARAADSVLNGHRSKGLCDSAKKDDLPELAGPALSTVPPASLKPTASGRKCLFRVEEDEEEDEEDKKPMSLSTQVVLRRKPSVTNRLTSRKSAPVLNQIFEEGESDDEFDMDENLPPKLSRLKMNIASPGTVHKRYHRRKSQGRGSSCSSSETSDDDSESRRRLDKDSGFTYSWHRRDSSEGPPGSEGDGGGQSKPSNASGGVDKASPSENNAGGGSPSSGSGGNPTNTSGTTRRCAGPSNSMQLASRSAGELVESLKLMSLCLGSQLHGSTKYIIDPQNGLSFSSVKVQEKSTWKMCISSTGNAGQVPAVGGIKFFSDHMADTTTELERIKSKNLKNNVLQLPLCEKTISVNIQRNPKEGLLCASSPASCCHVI

[5] = Selectivity interaction (KinomeScan (DiscoverX)) EUB0000229b CDPK1; conditions: at 1 µM
[6] = molecular target: Phosphatidylinositol 4-kinase beta (Homo sapiens, UniProt Q9UBF8); assay: Selectivity interaction (KinomeScan (DiscoverX)) EUB0000618a PI4KB; conditions: at 10 µM
Phosphatidylinositol 4-kinase beta, sequence (Q9UBF8 2-816 limits assumed): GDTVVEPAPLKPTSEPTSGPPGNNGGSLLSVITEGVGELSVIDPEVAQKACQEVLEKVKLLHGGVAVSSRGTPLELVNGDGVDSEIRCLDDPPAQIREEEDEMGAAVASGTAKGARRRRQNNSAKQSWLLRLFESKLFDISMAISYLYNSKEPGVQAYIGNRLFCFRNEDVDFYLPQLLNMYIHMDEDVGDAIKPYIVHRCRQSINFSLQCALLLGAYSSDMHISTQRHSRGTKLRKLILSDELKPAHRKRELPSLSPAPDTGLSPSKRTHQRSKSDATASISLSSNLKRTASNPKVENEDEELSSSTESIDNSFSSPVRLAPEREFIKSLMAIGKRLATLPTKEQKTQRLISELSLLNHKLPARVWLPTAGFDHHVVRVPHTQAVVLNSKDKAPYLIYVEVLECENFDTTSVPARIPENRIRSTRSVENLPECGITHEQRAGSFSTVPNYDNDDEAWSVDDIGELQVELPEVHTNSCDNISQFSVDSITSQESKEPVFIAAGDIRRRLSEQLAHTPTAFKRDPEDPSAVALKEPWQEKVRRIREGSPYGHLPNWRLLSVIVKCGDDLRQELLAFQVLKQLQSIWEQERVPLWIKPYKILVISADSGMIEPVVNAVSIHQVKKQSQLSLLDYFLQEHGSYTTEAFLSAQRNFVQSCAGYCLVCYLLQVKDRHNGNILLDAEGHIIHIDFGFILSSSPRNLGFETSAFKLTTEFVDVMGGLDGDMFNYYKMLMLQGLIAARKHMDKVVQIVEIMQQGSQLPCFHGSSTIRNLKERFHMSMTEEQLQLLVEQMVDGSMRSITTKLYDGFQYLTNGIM

% of inhibition [1]: -0.366%
SMILES: Cn1cc(-n2cnc3c(NCc4nc5cc(Cl)c(Cl)cc5[nH]4)nc(N4CCOCC4)nc32)cn1

% of inhibition [2]: 11.4%
SMILES: CC[C@@H]1[C@H](F)C(=O)N[C@@H]1COc1nccc2cc(C(N)=O)c(OC)cc12 [ZIMLOVISERTIB]

SMILES: CC(C)(O)[C@H](F)CN1Cc2cc(NC(=O)c3cnn4cccnc34)c(N3CCOCC3)cc2C1=O
dTM [3]: 2.1 K

SMILES: Nc1cnc(N2CCc3cc(S(=O)(=O)Nc4c(F)cc(Cl)cc4F)cc(N4CCCC4=O)c32)nc1 [TP-020n]
% of control [4]: 100%

SMILES: COc1cc(N(C)c2ccnc3ccc(C(F)(F)F)cc23)cc(OC)c1OC
% binding [5]: 74%

SMILES: O[C@H]1CC[C@H](Nc2ncc3nc(Nc4c(F)cc(F)cc4F)n([C@H]4CCOC4)c3n2)CC1
% of control [6]: 100%
